Patent US20010033888A1, “Crystalline trehalose dihydrate, its preparation and uses” (KABUSHIK KAISHA HAYASHIBARA SEIBUTS KAGAKU KENKYUJO, priority 1998, published 2001)
Where “and” joins values, the source holds several entries; their conditions need not be identical. Identical values can stand only once.

What was measured:
Type in all cases: physicochemical
[1] = Crystallinity by powdery X-ray diffraction analysis (Ruland method); settings: pulverized specimen, three specimens each, c axis about 10 mm, tetradodecahedral crystal
Protocol: The crystallinity was determined by pulverizing a specimen and applying the Ruland method in Acta Crystallographica, Vol. 14, p. […] As a control, commercially available crystal sugar with a size equivalent to those of the specimens was examined similarly as above.

[2] = Hygroscopicity / solidification of the crystal products; settings: dried crystal product; dihydrate
[3] = Intrusion disruptive strength by rheometer (needle about 3 mm in diameter); settings: stage elevated at 6 cm/min, three specimens each, strength when needle ruptures the crystal
Protocol: As a representative polyhedral crystalline trehalose dihydrate having the c axis of about 10 mm, obtained by the methods in the later described Examples A-1 and A-2, three specimens with a tetradodecahedral crystalline structure were used and examined for the crystallinity by powdery X-ray diffraction analysis and the intrusion disruptive strength by rheometer. The crystallinity was determined by pulverizing a specimen and applying the Ruland method in Acta Crystallographica, Vol. 14, p. 1,180 (1961) using “GEIGERFLEX RAD-IIB”, an X-ray diffraction analyzer using Cuka ray commercialized by Rigaku Corporation, Tokyo, Japan, based on the powdery X-ray diffraction intensity. Using “FUDOH RHEO METER NRM-2010J-CW”, a rheometer commercialized by Rheotech Co., Ltd., Tokyo, Japan; and a needle, about 3 mm in diameter, as an adaptor, the intrusion disruptive strength was determined by placing a polyhedral crystal on a specimen stage, elevating the stage to the direction of the needle at a rate of 6 cm/min, and measuring the strength (kg) when the needle intrudes into and ruptures the polyhedral crystal. As a control, commercially available crystal sugar with a size equivalent to those of the specimens was examined similarly as above.

Compound	Crystallinity ([1]; dihydrate)	Hygroscopicity and solidification [2]	Intrusion disruptive strength ([3]; dihydrate)	Crystallinity [1]	Intrusion disruptive strength [3]
O.O.OC[C@H]1O[C@H](O[C@H]2O[C@H](CO)[C@@H](O)[C@H](O)[C@H]2O)[C@H](O)[C@@H](O)[C@@H]1O [Example A-1, crystalline trehalose dihydrate]	84% and 83%	do not substantially absorb moisture to be solidified	4.3 kg and 4.1 kg and 4.0 kg		
O.O.OC[C@H]1O[C@H](O[C@H]2O[C@H](CO)[C@@H](O)[C@H](O)[C@H]2O)[C@H](O)[C@@H](O)[C@@H]1O [Example A-2, crystalline trehalose dihydrate]	84% and 83%	insubstantial hygroscopicity and solidification	3.8 kg and 3.5 kg		
OC[C@H]1O[C@@](CO)(O[C@H]2O[C@H](CO)[C@@H](O)[C@H](O)[C@H]2O)[C@@H](O)[C@@H]1O [Sugar crystal, reference compound]				84% and 85%	9.9 kg and 10.0 kg
